pKi: −log10 of the molar value. Where a name gives a salt, the structure may show the parent alone.
Assays:
α2C receptors = details: read-out: Affinity at α2C receptors; cited from earlier work
cloned hD1 receptors = cloned hD1 receptors (Homo sapiens, UniProt P21728); assay: Cyclic AMP accumulation assay; type: cell-based
cloned hD1 receptors, sequence (P21728 whole entry): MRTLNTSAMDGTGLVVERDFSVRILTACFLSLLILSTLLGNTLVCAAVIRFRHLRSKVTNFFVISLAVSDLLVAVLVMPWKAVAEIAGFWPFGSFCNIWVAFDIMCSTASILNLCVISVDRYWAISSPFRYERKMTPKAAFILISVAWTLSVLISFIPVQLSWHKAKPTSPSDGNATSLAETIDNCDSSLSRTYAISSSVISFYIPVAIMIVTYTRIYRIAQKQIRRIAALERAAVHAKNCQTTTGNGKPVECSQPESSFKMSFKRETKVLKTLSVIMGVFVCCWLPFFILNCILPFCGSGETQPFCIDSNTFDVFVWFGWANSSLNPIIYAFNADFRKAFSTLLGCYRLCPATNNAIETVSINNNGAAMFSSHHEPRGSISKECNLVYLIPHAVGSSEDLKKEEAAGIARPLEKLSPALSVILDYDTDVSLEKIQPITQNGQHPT

Compound | pKi (α2C receptors) | Agonist character at D1 receptors (cloned hD1 receptors)
Oc1cc2c(cc1O)C1c3ccccc3CNC1CO2 (centres unmarked) [DOX, doxanthrine] | 8.70 | –
Oc1ccc2c(c1O)C[C@@H](c1ccccc1)[C@@H]1CCNC[C@@H]21 [compound 3, Trans-5-Phenyl-1,2,3,4,4a,5,6,10b-octahydrobenzo[h]isoquinoline-7,8-diol Hydrobromide] | – | full agonist
